According to patent US11272841B2, “Indicator fluids, systems, and methods for assessing movement of substances within, to or from a cerebrospinal fluid, brain or spinal cord compartment of a cranio-spinal cavity of a human” (BRAINWIDESOLUTIONS AS, priority 2017, dated 2022):
Marks after values point to notes of the source that are not given here.

Assay: Repeated standardized T1-weighted MRI: signal units (SU) in ROIs of CSF, venous space and brain tissue after intrathecal gadobutrol, iNPH versus reference patients (Tables 2-4, FIG. 14b, 16)
Format: in vivo, human
Protocol: The different features of Aspect 2 are based on novel in-vivo observations in humans. […] In the following paragraphs, these novel observations in humans are commented on in more detail. In these studies, the MRI contrast agent gadobutrol served as indicator fluid and MRI SUs were indication signals. MRI T1 weighted signal units were measured when gadobutrol was present within CSF after having been administered to the CSF compartment, and were compared with MR images having identical sequence parameter settings and with no gadobutrol present in CSF. […] With a MW of 605 Da, gadobutrol is a rather large molecule in comparison to the MW of water (H2O) molecule, which is 18 Da. Clearance of gadobutrol is then indicative of clearance of other substances with similar properties.
We explored both movement of the contrast agent within, to, and from the cranio-spinal cavity, including CSF, brain and spinal cord compartment, and from the cranio-spinal cavity to extra-cranial LNs. With gadobutrol present within CSF, blood level concentrations of contrast agents were determined at various time point. The repeated MRI acquisitions made it possible to create clearance curves for one or more pixels, defined by ROIs. ROIs were placed within CSF compartments, brain and spinal cord tissue compartments, and extracranial LN tissue compartments. By means of MRI, we could create graphic curves illustrating clearance of substances (clearance illustrating curves) for defined ROIs built up of a defied number of pixels for each individual. For details of said clearance curves, see FIG. 7. The establishment of clearance curves was dependent on repeated MRI acquisitions over a long period.
Using MRI SUs, we created clearance illustrating curves, see FIG. 7, for the individual patients as well as for groups of individuals. Tables 2-4 illustrate various examples of parameter values of the clearance illustrating curves.
Table 2, as discussed with FIG. 2, illustrates how maximum increase in SUs varies between individuals and patient groups. Tables 3 and 4 compare such clearance curve parameters from two patient groups, namely iNPH and reference (i.e. control) patients, illustrating inter-individual differences and differences between patient groups. These patient groups represent no limitation of the invention as it may be used in various patient groups such as Alzheimer's and dementia in general, brain tumor (e.g. astrocytoma), multiple sclerosis and inflammatory brain disease, stroke (brain infarction or bleeds), sleep disturbances, neurodegenerative disease, CSF circulation disorders, traumatic brain injury, neurometabolic diseases, glaucoma, chronic headache and migraine, and in assessment of ageing in general.
Even though perfect match of ROIs of repeated images may be difficult to obtain, the second aspect of the invention is facilitated by that image acquisition parameters at repeated MRI acquisitions are kept fixed and thus standardized. […] Further, to make best possible alignments of pixels, methods for alignment of repeated MRI acquisitions need to be implemented. Methods for alignment of repeated MRI images belong to prior art. Aids to improve alignment may incorporate landmark locations such as the cranial vault, pineal gland, and ventricular system.
Each image acquisition lasted 6 minutes and 29 seconds.

[1] = Brain parenchyma: Frontal horn, Reference
[2] = Brain parenchyma: Frontal horn, iNPH
[3] = Brain parenchyma: Inferior frontal gyrus (IFG), Reference
[4] = Brain parenchyma: Inferior frontal gyrus (IFG), iNPH
[5] = Brain parenchyma: Pons, Reference
[6] = Brain parenchyma: Precentral gyrus, Reference
[7] = Brain parenchyma: Precentral gyrus, iNPH
[8] = Brain parenchyma: Thalamus, Reference
[9] = Brain parenchyma: Thalamus, iNPH
[10] = CSF space: 3rd Ventricle, Reference
[11] = CSF space: 4th Ventricle, Reference
[12] = CSF space: Foramen Magnum, Reference
[13] = CSF space: Foramen Magnum, iNPH
[14] = CSF space: Lateral Ventricle, Reference

With O=C([O-])CN1CCN(CC(=O)[O-])CCN([C@H](CO)[C@H](O)CO)CCN(CC(=O)[O-])CC1.[Gd+3] (racemic) [gadobutrol] the “Enhancement coefficient (SU/min)” value [1] was 0.05 SU/min, the “Max increase (SU)” value [1] was 7.9 ± 7.9 SU and the “Time to peak” value [1] was 1109.8 ± 585.6 min. The “Enhancement coefficient (SU/min)” value [2] was 0.04 SU/min, the “Max increase (SU)” value [2] was 48.5 ± 32.8^b SU and the “Time to peak” value [2] was 1349.3 ± 350.9 min. The “Enhancement coefficient (SU/min)” value [3] was 0.02 SU/min, the “Max increase (SU)” value [3] was 23.8 ± 20.9 SU and the “Time to peak” value [3] was 1421.3 ± 53.1 min. For the same molecule, the “Enhancement coefficient (SU/min)” value [4] was 0.03 SU/min, the “Max increase (SU)” value [4] was 39.1 ± 25.3 SU and the “Time to peak” value [4] was 1358.0 min. The “Enhancement coefficient (SU/min)” value [5] was 0.08 SU/min, the “Time to peak” value [5] was 929.4 ± 676.9 min and the “Enhancement coefficient (SU/min)” value (Brain parenchyma: Pons, iNPH) was 0.03 SU/min. The “Time to peak” value (Brain parenchyma: Pons, iNPH) was 1090.0 ± 602.3 min, the “Enhancement coefficient (SU/min)” value [6] was 0.03 SU/min and the “Max increase (SU)” value [6] was 7.8 ± 11.2 SU. The “Time to peak” value [6] was 742.8 ± 727.9 min, the “Enhancement coefficient (SU/min)” value [7] was 0.04 SU/min and the “Max increase (SU)” value [7] was 9.0 ± 8.3 SU. The “Time to peak” value [7] was 900.0 ± 686.4 min, the “Enhancement coefficient (SU/min)” value [8] was 0.01 SU/min and the “Max increase (SU)” value [8] was 9.0 ± 7.1 SU. The “Time to peak” value [8] was 1288.4 ± 386.3 min, the “Enhancement coefficient (SU/min)” value [9] was 0.01 SU/min and the “Max increase (SU)” value [9] was 13.0 ± 6.8 SU. For the same molecule, the “Time to peak” value [9] was 1261.7 ± 462.6 min, the “Clearance coefficient (SU/min)” value [10] was −0.09 ± 0.08 SU/min and the “Clearance time” value [10] was 1135.3 ± 74.2 min. For the same molecule, the “Enhancement coefficient (SU/min)” value [10] was 0.4 SU/min, the “Max increase (SU)” value [10] was 115.1 ± 103.8 SU and the “Max reduction (SU)” value [10] was −103.7 ± 83.9 SU. For the same molecule, the “Time to peak” value [10] was 253.8 ± 133.2 min, the “Clearance coefficient (SU/min)” value (CSF space: 3rd Ventricle, iNPH) was −0.10 ± 0.07 SU/min and the “Clearance time” value (CSF space: 3rd Ventricle, iNPH) was 1234.3 ± 116.2 min. For the same molecule, the “Enhancement coefficient (SU/min)” value (CSF space: 3rd Ventricle, iNPH) was 1.4 SU/min, the “Max increase (SU)” value (CSF space: 3rd Ventricle, iNPH) was 243.6 ± 136.9^a SU and the “Max reduction (SU)” value (CSF space: 3rd Ventricle, iNPH) was −114.4 ± 76.8 SU. For the same molecule, the “Time to peak” value (CSF space: 3rd Ventricle, iNPH) was 615.3 ± 587.5 min, the “Clearance coefficient (SU/min)” value [11] was −0.18 ± 0.08 SU/min and the “Clearance time” value [11] was 1287.6 ± 105.9 min. The “Enhancement coefficient (SU/min)” value [11] was 6.3 SU/min, the “Max increase (SU)” value [11] was 236.0 ± 142.9 SU and the “Max reduction (SU)” value [11] was −232.6 ± 103.7 SU. The “Time to peak” value [11] was 123.4 ± 98.1 min, the “Clearance coefficient (SU/min)” value (CSF space: 4th Ventricle, iNPH) was −0.19 ± 0.1 SU/min and the “Clearance time” value (CSF space: 4th Ventricle, iNPH) was 1234.4 ± 109.1 min. The “Enhancement coefficient (SU/min)” value (CSF space: 4th Ventricle, iNPH) was 5.6 SU/min, the “Max increase (SU)” value (CSF space: 4th Ventricle, iNPH) was 386.5 ± 138.2^a SU and the “Max reduction (SU)” value (CSF space: 4th Ventricle, iNPH) was −231.6 ± 128.1 SU. The “Time to peak” value (CSF space: 4th Ventricle, iNPH) was 286.7 ± 322.9 min, the “Clearance coefficient (SU/min)” value [12] was −0.28 ± 0.08 SU/min and the “Clearance time” value [12] was 1294.4 ± 154.5 min. For the same molecule, the “Enhancement coefficient (SU/min)” value [12] was 17.7 SU/min, the “Max increase (SU)” value [12] was 426.0 ± 123.0 SU and the “Max reduction (SU)” value [12] was −358.1 ± 117.7 SU. For the same molecule, the “Time to peak” value [12] was 129.4 ± 156.7 min, the “Clearance coefficient (SU/min)” value [13] was −0.16 ± 0.07^b SU/min and the “Clearance time” value [13] was 1264.3 ± 116.1 min. The “Enhancement coefficient (SU/min)” value [13] was 5.9 SU/min, the “Max increase (SU)” value [13] was 398.3 ± 108.0 SU and the “Max reduction (SU)” value [13] was −206.7 ± 90.8^b SU. The “Time to peak” value [13] was 174.5 ± 94.2 min, the “Clearance coefficient (SU/min)” value [14] was −0.07 ± 0.01 SU/min and the “Clearance time” value [14] was 1098.0 ± 12.5 min. The “Enhancement coefficient (SU/min)” value [14] was 0.13 SU/min, the “Max increase (SU)” value [14] was 42.5 ± 51.9 SU and the “Max reduction (SU)” value [14] was −72.3 ± 11.9 SU. The “Time to peak” value [14] was 402.6 ± 446.1 min.
